The source of these data is paper PMC10870825, “Design, synthesis, and inhibitory activity of hydroquinone ester derivatives against mushroom tyrosinase” (RSC Advances, 2024).

Data set [1] addresses T1, mushroom tyrosinase (mTyr) (Agaricus bisporus, UniProt C7FF04). As to the kind of experiment: Inhibitory activity assay on mTyr with L-tyrosine as substrate. It counts as biochemical. As to conditions: for Concentration at maximum inhibition rate: second figure of the cell rate/concentration. The protocol: The synthesized hydroquinone ester derivatives were dissolved in 3% dimethyl sulfoxide (DMSO) solution and then diluted with phosphate-buffered solution (PBS, pH 6.86, 100 mM) to obtain different concentrations. […] The plate was incubated at 37 °C for 30 minutes, after which 20 μL of L-tyrosine solution (1 mM) was added and mixed. The absorbance at a wavelength of 475 nm was measured using a SpectraMax 190 microplate reader (MolecularDevices, USA) continuously for 30 minutes. PBS was used as a blank control, and kojic acid was used as a positive control.

The target in data set [2] is T1, mushroom tyrosinase (mTyr). Briefly: Inhibition reversibility and type assay (Lineweaver–Burk kinetics) on mTyr. It counts as biochemical. The following applies: for Inhibition type: Lineweaver–Burk plots, 300 U/mL mTyr, varying L-tyrosine. The protocol:
The methodology for evaluating the reversibility of inhibition and the inhibition type of the compounds on mTyr closely parallels the procedure outlined in the inhibitory activity assay of compounds on mTyr.
For the evaluation of inhibition reversibility, a constant concentration of 1 mM L-tyrosine was employed. […] The absorption was measured to determine the initial enzymatic reaction rate corresponding to each enzyme concentration. Specifically, the initial enzymatic reaction rate was calculated by subtracting the initial absorbance from the absorbance recorded at a specific time and then dividing the result by the corresponding time interval.[32] Subsequently, the collected data were plotted on a scatter plot, with the initial enzymatic reaction rate represented on the Y-axis and the enzyme concentration on the X-axis. In cases of reversibility, this will result in fitting a set of straight lines passing through the origin. Conversely, when reversibility was absent, a set of parallel lines emerged as the fit.[33]
In order to investigate the inhibition type, a final concentration of 300 U per mL mTyr was employed, accompanied by varying concentrations of L-tyrosine. The enzymatic reaction rate was evaluated for different concentrations of compounds 3a–3e. Subsequently, the ΔOD475 values were plotted against the L-tyrosine concentration using the Lineweaver–Burk equation, allowing for the creation of double reciprocal plots.

Data set [3] relates to human epidermal melanoma A375 cells. Briefly: CCK-8 cell proliferation and cytotoxicity assay, A375 cells. It counts as cell-based. The protocol: (§1) Cell proliferation and cytotoxicity assays were performed using the CCK-8 on Human Epidermal Melanoma A375 and HaCaT cells. Initially, the cells were seeded in 96-well plates at a density of 4 × 10^4 cells per well and incubated for 24 hours at 37 °C with 5% CO2 in a humidified incubator. Each treatment was conducted in six duplicate wells. Various concentrations of the tested compounds were added to the wells, and the cells were further incubated for 72 hours. After the incubation period, CCK-8 solution was added to each well and incubated for an additional 2 hours. The absorbance of each well at 450 nm was measured using an absorbance microplate reader (BioTek ELx800, USA). Negative controls with cells treated with distilled water and positive controls with cells were treated with 10 μg mL^−1 taxol was included in the assay. The percentage of cell growth inhibition was calculated using eqn (2).2 [drawing 1] where G1 represents the absorbance of a mixture containing cells, medium, and CCK8, G2 represents the absorbance of absorbance of a mixture containing cells, medium, CCK8, and the test compound; G3 represents a mixture containing medium and CCK8.
(§2) Cell growth and morphology were observed using an inverted microscope (Olympus IX51, Japan). The experiments were conducted in triplicate to ensure accuracy and consistency of results.

The subject of data set [4] is human immortalized keratinocyte (HaCaT) non-tumor cells. As to the kind of experiment: CCK-8 cell proliferation and cytotoxicity assay, HaCaT cells. Format: cell-based. On the procedure: as §1, §2
Data set [5] addresses T1, mushroom tyrosinase (mTyr). As to conditions: read-out: IC50 for inhibiting mTyr activity; literature value; ref [15]; cited from earlier work.
Setting [6] is: substrate L-tyrosine, read-out: IC50 for inhibiting mTyr activity.

“Also recorded” adds a separate entry of the source. Like-named read-outs stand apart in the source and are kept apart here.

The melting point is the temperature, or range, at which the solid turns liquid. What is called IC50 is the concentration that gives 50% inhibition. A word on the Ki: it is the equilibrium dissociation constant of an inhibitor or competing ligand from its target. In general, inhibition refers to the change of the read-out against control, counted positive when it falls.

T1 sequence (C7FF04 1-392): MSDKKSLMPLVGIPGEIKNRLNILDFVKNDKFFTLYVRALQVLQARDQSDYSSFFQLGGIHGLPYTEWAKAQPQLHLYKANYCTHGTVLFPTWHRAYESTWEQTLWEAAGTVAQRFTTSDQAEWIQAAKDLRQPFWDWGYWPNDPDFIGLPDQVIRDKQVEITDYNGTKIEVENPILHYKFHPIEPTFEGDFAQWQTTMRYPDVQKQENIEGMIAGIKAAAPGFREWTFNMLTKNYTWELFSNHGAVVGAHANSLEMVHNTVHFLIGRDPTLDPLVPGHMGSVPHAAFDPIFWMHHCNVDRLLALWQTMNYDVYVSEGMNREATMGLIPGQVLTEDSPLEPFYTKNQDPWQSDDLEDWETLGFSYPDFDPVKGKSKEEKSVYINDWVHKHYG

`O=C(CCc1ccccc1)Oc1ccc(OC(=O)CCc2ccccc2)cc1` [Compound 3g, 1,4-phenylene bis(3-phenylpropanoate)] returned a melting point of 128 to 130 °C.
Regarding `O=C(CCc1ccccc1)Oc1ccc(O)cc1` [Compound 3c, 4-hydroxyphenyl 3-phenylpropanoate], the melting point fell in the range of 149 to 151 °C. Besides, the “Concentration at maximum inhibition rate” value in data set [1] stood at 50 µM. Moreover, the IC50 in data set [1] (setting [6]) amounted to 7.46 ± 0.9 µM. Besides, the Inhibition type entry in data set [2] is “Noncompetitive; also recorded: non-competitive inhibition; also recorded: non-competitive inhibitors”. For the same molecule, the “maximum reaction rate (Vm) of mTyr” value in data set [2] (compound concentration 5 μM) is on record as 0.6327 ×103, min-1. For the same molecule, the “maximum reaction rate (Vm) of mTyr” value in data set [2] (compound concentration 10 μM) was 0.3424 ×103, min-1. Besides, in data set [2] (compound concentration 20 μM), the “maximum reaction rate (Vm) of mTyr” value is 0.2581 ×103, min-1.
Consider `O=C(C=Cc1ccccc1)Oc1ccc(O)cc1` [Compound 3b, 4-hydroxyphenyl cinnamate], for which the melting point was 171 to 173 °C. The “Concentration at maximum inhibition rate” value in data set [1] was 2.5 µM. Moreover, the IC50 in data set [1] (setting [6]) came to 0.18 ± 0.06 µM. The Inhibition type result in data set [2] is “Mix-noncompetitive; also recorded: mixed-type inhibition”. In addition, the “maximum reaction rate (Vm) of mTyr” value in data set [2] (compound concentration 1 μM) is 0.7572 ×103, min-1. Moreover, the “maximum reaction rate (Vm) of mTyr” value in data set [2] (compound concentration 2 μM) is reported as 0.3461 ×103, min-1. In addition, the “maximum reaction rate (Vm) of mTyr” value in data set [2] (compound concentration 4 μM) is recorded as 0.2145 ×103, min-1. In addition, the inhibition constant Ki in data set [2] (read-out: free enzyme inhibition constant (KI)) worked out at 1880 nM. The “mTyr–substrate complex inhibition constant (KIS)” value in data set [2] (secondary plots, mixed-type inhibition) stood at 0.3395 µM. Also, the inhibition at 50 µM in data set [3] (A-375, 50 μM, read-out: inhibition rate on A375 cells) was found to be 60.9%. Further, the 50% inhibitory concentration (IC50) in data set [3] (A-375, 72 hours, CCK-8, read-out: IC50 against A375 cells) turned out to be 40.8 µM. For the same molecule, the inhibition at 50 µM in data set [4] (Homo sapiens, HaCaT, 50 μM, read-out: inhibition rate on HaCaT cells) was determined as 9.09%. Moreover, the IC50 in data set [4] (Homo sapiens, HaCaT, 72 hours, CCK-8, read-out: IC50 against HaCaT cells) turned out to be 169 µM. Further, in data set [4] (concentration range 3.125–25 μM), the “inhibition rate on HaCaT cells” value is “below 5%”.
For the molecule `O=C(Oc1ccc(OC(=O)c2ccc(F)cc2)cc1)c1ccc(F)cc1` [Compound 3f, 1,4-phenylene bis(4-fluorobenzoate)], the melting point lay within 196 to 198 °C. Further, the “Concentration at maximum inhibition rate” value in data set [1] turned out to be 100 µM. Besides, in data set [1] (setting [6]), the IC50 was 54.2 ± 8.65 µM.
For `O=C(Oc1ccc(O)cc1)c1ccccc1` [Compound 3d, 4-hydroxyphenyl benzoate], the melting point lay within 150 to 152 °C. The “Concentration at maximum inhibition rate” value in data set [1] turned out to be 75 µM. In addition, in data set [1] (setting [6]), the IC50 came out at 20.5 ± 1.79 µM. In addition, the Inhibition type entry in data set [2] is listed as “competitive inhibition; also recorded: competitive inhibitors”. The “maximum reaction rate (Vm) of mTyr” value in data set [2] (compound concentration 5 μM) is recorded as 0.9216 ×103, min-1. In data set [2] (compound concentration 10 μM), the “maximum reaction rate (Vm) of mTyr” value is reported as 0.9208 ×103, min-1. In addition, in data set [2] (compound concentration 20 μM), the “maximum reaction rate (Vm) of mTyr” value is recorded as 0.9209 ×103, min-1.
For `O=C(Oc1ccc(O)cc1)c1ccc(F)cc1` [Compound 3e, 4-hydroxyphenyl 4-fluorobenzoate], the melting point was in the range of 142 to 144 °C. For the same molecule, the “Concentration at maximum inhibition rate” value in data set [1] turned out to be 100 µM. For the same molecule, the IC50 in data set [1] (setting [6]) came out at 24.7 ± 3.04 µM. Further, in data set [2], the Inhibition type result is on record as “competitive inhibition; also recorded: competitive inhibitors”. For the same molecule, in data set [2] (compound concentration 5 μM), the “maximum reaction rate (Vm) of mTyr” value is reported as 1.474 ×103, min-1. Further, the “maximum reaction rate (Vm) of mTyr” value in data set [2] (compound concentration 10 μM) is reported as 1.470 ×103, min-1. Also, the “maximum reaction rate (Vm) of mTyr” value in data set [2] (compound concentration 20 μM) is 1.468 ×103, min-1.
`O=C(/C=C/c1ccc(O)cc1)Oc1ccc(O)cc1` [Compound 3a, 4-hydroxyphenyl (2E)-3-(4-hydroxyphenyl) prop-2-enoate] came in with a melting point of 217 to 220 °C. Moreover, the “Concentration at maximum inhibition rate” value in data set [1] turned out to be 10 µM. Moreover, in data set [1] (setting [6]), the IC50 is 1.75 ± 0.02 µM. Further, the Inhibition type entry in data set [2] is “Noncompetitive; also recorded: non-competitive inhibition; also recorded: non-competitive inhibitors”. For the same molecule, the “maximum reaction rate (Vm) of mTyr” value in data set [2] (compound concentration 5 μM) was 0.4272 ×103, min-1. For the same molecule, the “maximum reaction rate (Vm) of mTyr” value in data set [2] (compound concentration 10 μM) is listed as 0.2843 ×103, min-1. Besides, the “maximum reaction rate (Vm) of mTyr” value in data set [2] (compound concentration 20 μM) is given as 0.1836 ×103, min-1.
Consider `O=C(O)/C=C/c1ccccc1` [Cinnamic acid, cinnamic acid], for which the IC50 in data set [5] was 201 ± 5.3 µM.
For `O=C(O)C=Cc1ccc(O)cc1` [4-Hydroxycinnamic acid, 4-hydroxycinnamic acid, reference compound], in data set [1], inhibition was half-maximal at 16.4 ± 5.42 µM (IC50) and the “Concentration at maximum inhibition rate” value is 50 µM.
Regarding `Oc1ccc(O)cc1` [Hydroquinone, hydroquinone], the “Concentration at maximum inhibition rate” value in data set [1] stood at 75 µM. Further, in data set [1] (setting [6]), the IC50 stood at 22.78 ± 0.16 µM.
